How the values were obtained:
Assay in all cases: Minimum inhibitory concentration on reinforced clostridial agar
Settings in all cases: 3 days at 35° C., anaerobic, complete growth inhibition
P. avidum ATCC 25577 = type: cell-based, Propionibacterium avidum
Protocol: (§1) To evaluate an antimicrobial activity of the phytandiol amine of this invention against acne pathogen, the minimum inhibitory concentration (hereinafter referred to as “MIC”) of the samples shown in Table 1 was measured as follows: The sample to be tested was added to reinforced clostridial agar medium (available from Difco Co.) in the amount of 0.001–0.1%, followed by solidification of the medium. The suspension of acne pathogenic bacteria found in Table 1 was streaked on the surface of the medium and the medium was incubated for 3 days at 35° C. under anaerobic condition.

P. acnes ATCC 6919 = type: cell-based, Propionibacterium acnes
Protocol: as §1

P. acne ATCC 11828 = type: cell-based, Propionibacterium acnes
Protocol: as §1

Structure (SMILES) | MIC (P. avidum ATCC 25577) | MIC (P. acnes ATCC 6919) | MIC (P. acne ATCC 11828)
O=C(OOC(=O)c1ccccc1)c1ccccc1 [Benzoyl peroxide] | 0.1% | 0.1% | 0.1%
CC[C@H]1OC(=O)[C@H](C)[C@@H](O[C@H]2C[C@@](C)(OC)[C@@H](O)[C@H](C)O2)[C@H](C)[C@@H](O[C@@H]2O[C@H](C)C[C@H](N(C)C)[C@H]2O)[C@](C)(O)C[C@@H](C)C(=O)[C@H](C)[C@@H](O)[C@]1(C)O [Erythromycin] | 0.02% | 0.02% | 0.02%
